# Where two headings read alike, the source gives them in different places.
# Legend:
# [1] = system: human monocytes; test: Measurement of Ca2+ influx in monocytes (Indo-1 AM); type: cell-based; details: for Induction of Ca2+ influx in human monocytes by chemokine: 100 ng/ml
# Experimental: Intracellular concentrations of Ca^2+ were measured by using Indo-1 AM according to a previously described method (Lopez, et al., Cytometry 10:165-73 (1989)). Purified monocytes were resuspended in HBSS containing 1 mM Ca^2+, 1 mM Mg^2+, and 5% autologous serum, and incubated with […] Indo-1 AM for 45 min at 37° C. The cells were washed once, resuspended in the same buffer, and stimuli and inhibitors were added at the time points specified in the Figure Legends. Intracellular Ca^2+ concentration was measured by monitoring light emission at 405 and 485 nm to an excitation wavelength of 355 nm, using an AMINCO-Bowman series 2 luminescence spectrometer (Rochester, N.Y.).
# [2] = system: human peripheral blood monocytes; test: Monocyte migration assay in vitro (96-well micro Boyden chamber); type: cell-based; details: for inhibition at 10000 µM: Homo sapiens, Monocyte, 10 mM lactose, read-out: Inhibition of galectin-3-induced monocyte migration
# Excerpt: Human monocytes were purified from venous blood of normal volunteers essentially as described previously (Nakagawara, et al., J. Clin. Invest. 68:1243-53 (1981)). In brief, after erythrocytes were sedimented by addition of 6% dextran saline solution (I part to 5 parts heparinized blood), the leukocytes were collected, washed twice, and resuspended in Ca^2+ and Mg^2+-free HBSS containing 5% autologous serum. Mononuclear cells were acquired by centrifugation of the leukocyte suspension on Ficoll Paque at 1,500 rpm for 15 min. The cells were resuspended in RPMI 1640 containing 10% autologous serum and allowed to adhere to sterile tissue culture plates for 30 min in a humidified incubator at 5% CO2 and 37° C. After incubation, non-adherent cells were removed by washing the plates three times with PBS at 37° C. […] To detach and harvest the adhered monocytes, 1 mM EDTA-PBS containing 5% serum was added and the plates were incubated on ice for 30 min. The monocytes were washed twice with HBSS and resuspended in RPMI 1640 with 0.1% autologous serum for the migration assay. The viability of monocytes was determined by trypan blue exclusion and was more than 98%. In some experiments, monocytes were purified according to another method using a Percoll discontinuous gradient described previously (Chuluyan & Issekutz, J. Clin. Invest. 92:2768-77 (1993)).
# (§1) Monocyte migration was examined by using 96-well micro Boyden chambers with 5 μm-pore size filters (Neuro Probe, Inc., Gaithersburg, Md.) as described previously (Falk, et al., J. Immunol. Meth. 33:239-47 (1980)), Chertov, et al., J. Biol. Chem. 271:2935-40 (1996)). Briefly, after the indicated concentrations of galectin-3 in RPMI 1640 were applied to the lower chambers, purified monocyte suspensions (2.5-5.0×10^4/well) were applied to the upper chambers. After incubation of the chambers for 1 h in a humidified incubator at 5% CO2 and 37° C., the filters were washed once with PBS and processed with Wright stain. The number of monocytes on the bottom side of the filters was counted in 5 to 10 high-power fields. Monocyte migration was calculated from the average numbers of the counted cells and expressed as % of input cells in a well.
# In assays using inhibitory reagents, the purified monocytes were pretreated with or without the indicated concentrations of B2C10 (Liu, et al., Biochemistry 35:[…] (1996)) or anti-DNP IgG1 (Liu, et al., J. Immunol. 124:2728-31 (1980)) as an isotype-matched control mAb, galectin-3C, or PTX at 37° C. for 30 min. Then the cells were applied to the upper chambers in the presence of these inhibitors at the same concentrations used in the pretreatment. In the assays using lactose and sucrose, the sugars were added to the lower chambers at the initiation of the migration assay.
# [3] = system: human alveolar macrophages; test: Migration of human alveolar macrophages in vitro; type: cell-based
# Excerpt: (§2) Human macrophages were obtained by culturing peripheral blood monocytes in vitro for 7 days as previously described (Fantuzzi, et al., Blood 94:875-83 (1999)). Human alveolar macrophages were obtained from bronchoalveolar lavage (BAL) fluid according to a previously described protocol (Sugimoto et al, Am. Rev. Respir. Dis. 139:1329-35 (1989)). The purity of the macrophages was over 90% and the viability was over 99%.
# as §1
# [4] = system: cultured human peripheral blood macrophages; test: Migration of cultured human peripheral blood macrophages in vitro; type: cell-based; details: confirmed by applicant (FIG. 9)
# Excerpt: as §2, §1
# [5] = system: monocytes; type: cell-based, human; details: 1 μg/ml of PTX; data not shown
# Experimental: The possibility that G-proteins might be involved in galectin-3-induced monocyte migration was tested using the inhibitor pertussis toxin (PTX), because it is well known that many chemoattractants, including all chemokines, utilize G-protein-coupled receptors to transduce signals into the cell (Baggiolini, Nature 392:565-68 (1998)).
molecule,measurement,setting,value
"MCP-1: human recombinant MCP-1, a strong chemoattractant for monocytes (Pepro Tech)",Induction of Ca2+ influx in human monocytes by chemokine,[1],induced a Ca^2+ influx
same,Concentration that induced maximum monocyte migration,"[2]; dose-response experiments, also printed as 11.6 nM",100 ng/mL
same,Effect on alveolar macrophage migration,"[3]; FIG. 10, exp. 1",no effect
same,Effect on alveolar macrophage migration,"[3]; FIG. 10, exp. 2",negligible effect
same,Response of cultured human macrophages to MCP-1,[4],do not respond
"pertussis toxin [PTX, reference compound]",Viability of monocytes,[5],did not decrease the viability
same,Effect of PTX on MCP-1-induced Ca2+ influx,"[1]; 1 μg/ml of PTX, 100 ng/ml MCP-1",blocked
same,Effect of PTX on galectin-3-induced Ca2+ influx,"[1]; 1 μg/ml of PTX, 1 μM galectin-3",blocked
same,Inhibition of MCP-1-induced monocyte migration,"[2]; 1 μg/ml of PTX, all MCP-1 concentrations examined",significantly inhibited
same,Decrease of galectin-3-induced monocyte migration,"[2]; PTX, 1 μM galectin-3, p<0.01, n=5",91.2%
same,Inhibition of galectin-3-induced monocyte migration,"[2]; PTX, 10 or 100 nM galectin-3, p=0.8501 and 0.3093, n=5",did not significantly inhibit
"OC[C@H]1O[C@@H](O[C@H]2[C@H](O)[C@@H](O)C(O)O[C@@H]2CO)[C@H](O)[C@@H](O)[C@H]1O (some centres unmarked) [lactose, reference compound]",Inhibition of MCP-1-induced Ca2+ influx,"[1]; 5 mM lactose, 100 ng/ml MCP-1",not
same,Inhibition of galectin-3-induced Ca2+ influx,"[1]; 5 mM lactose, 1 μM galectin-3",complete inhibition
same,Effect on monocyte migration induced by MCP-1,[2]; 5 mM and 10 mM lactose,did not affect
same,Decrease of galectin-3-induced monocyte migration,"[2]; 5 mM lactose, 10 nM galectin-3, p<0.05, n=3",63.8%
same,Decrease of galectin-3-induced monocyte migration,"[2]; 5 mM lactose, 100 nM galectin-3, p<0.05, n=3",71.5%
same,Decrease of galectin-3-induced monocyte migration,"[2]; 5 mM lactose, 1 μM galectin-3, p<0.05, n=3",57.6%
same,inhibition at 10000 µM,"[2]; 10 nM galectin-3, p<0.05, n=3",78%
same,inhibition at 10000 µM,"[2]; 100 nM galectin-3, p<0.05, n=3",74.1%
same,inhibition at 10000 µM,"[2]; 1 μM galectin-3, p<0.05, n=3",71.1%
"OC[C@H]1O[C@@](CO)(O[C@H]2O[C@H](CO)[C@@H](O)[C@H](O)[C@H]2O)[C@@H](O)[C@@H]1O [sucrose, reference compound]",Inhibition of galectin-3-induced Ca2+ influx,"[1]; 5 mM sucrose, 1 μM galectin-3",not
same,Effect on galectin-3-induced monocyte migration,"[2]; sucrose 5 mM or 10 mM, negative control sugar",no significant effect
SDF-1α,Induction of Ca2+ influx in human monocytes by chemokine,[1],induced a Ca^2+ influx

# Reference: US20060148712A1, “Monocyte chemoattractant activity of galectin-3” (priority 2000, published 2006)
